Measured values: PubChem BioAssay (NCI)
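Values below derive from 48-hour exposures of cells grown in 96-well plates, with endpoints linearly interpolated between the two concentrations bracketing the appropriate inhibition level. The concentration for 50% growth inhibition is given as GI50. TGI is the concentration that stops growth completely.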

Experiments:
Experiment in all cases: inhibition of tumour cell growth, NCI panel, 48 h; in the data active = GI50 below about 0.43 µM; inactive = the rest
[1] = tested on: KM12 colon
[2] = tested on: LOX IMVI melanoma
[3] = tested on: A549 NSCLC
[4] = tested on: UO-31 renal
[5] = tested on: SW-620 colon
[6] = tested on: NCI/ADR-RES ovarian
[7] = tested on: HL-60(TB) leukemia
[8] = tested on: NCI-H23 lung
[9] = tested on: MDA-MB-231 breast
[10] = tested on: MDA-MB-435
[11] = tested on: SN12C renal
[12] = tested on: RXF 393 renal
[13] = tested on: OVCAR-4 ovarian
[14] = tested on: PC-3 prostate
[15] = tested on: MALME-3M melanoma
[16] = tested on: HS 578T breast
[17] = tested on: MOLT-4 leukemia
[18] = tested on: CCRF-CEM leukemia
[19] = tested on: A498 renal
[20] = tested on: COLO 205 colon
[21] = tested on: UACC-62 melanoma
[22] = tested on: SK-OV-3 ovarian
[23] = tested on: HCT-116 colon
[24] = tested on: M14 melanoma
[25] = tested on: HT29 colon
[26] = tested on: SF-268 CNS
[27] = tested on: SF-539 CNS
[28] = tested on: SR leukemia
[29] = tested on: SK-MEL-28 melanoma
[30] = tested on: 786-0 renal
[31] = tested on: EKVX NSCLC
[32] = tested on: UACC-257 melanoma
[33] = tested on: K-562 leukemia
[34] = tested on: SF-295 CNS
[35] = tested on: DU-145 prostate
[36] = tested on: ACHN renal
[37] = tested on: TK-10 renal
[38] = tested on: OVCAR-3 ovarian
[39] = tested on: CAKI-1 renal
[40] = tested on: NCI-H522 lung
[41] = tested on: IGROV1 ovarian
[42] = tested on: HOP-62 NSCLC
[43] = tested on: RPMI-8226 leukemia
[44] = tested on: OVCAR-5 ovarian
[45] = tested on: HCC-2998 colon
[46] = tested on: U251 CNS
[47] = tested on: SK-MEL-5 melanoma
[48] = tested on: OVCAR-8 ovarian
[49] = tested on: BT-549 breast
[50] = tested on: SK-MEL-2 melanoma
[51] = tested on: T-47D breast
[52] = tested on: NCI-H226 lung
[53] = tested on: SNB-75 CNS
[54] = tested on: NCI-H460 lung
[55] = tested on: SNB-19 CNS
[56] = tested on: HCT-15 colon
[57] = tested on: MCF7 breast

Nc1nonc1-c1nc2cnccc2n1C1CCCCC1
19.6 µM: TGI [7]
23.4 µM: TGI [40]
inactive: GI50 [1] 9.16 µM | GI50 [2] 16.3 µM | GI50 [3] 13 µM | GI50 [4] > 24 µM | GI50 [5] 14 µM | GI50 [6] > 22.1 µM | GI50 [7] 7.25 µM | GI50 [8] > 18.5 µM | GI50 [9] > 25 µM | GI50 [10] 22.5 µM | GI50 [11] 12.5 µM | GI50 [12] 4.8 µM | GI50 [13] > 16.6 µM | GI50 [14] > 19.9 µM | GI50 [15] > 25 µM | GI50 [16] 13.9 µM | GI50 [17] 12 µM | GI50 [18] 7.84 µM | GI50 [19] 5.09 µM | GI50 [20] 6.9 µM | GI50 [21] 14.3 µM | GI50 [22] 18.8 µM | GI50 [23] 7.45 µM | GI50 [24] 24 µM | GI50 [25] 9.87 µM | GI50 [26] > 25 µM | GI50 [27] 3.7 µM | GI50 [28] 7.35 µM | GI50 [29] > 25 µM | GI50 [30] 11.1 µM | GI50 [31] > 20.3 µM | GI50 [32] > 25 µM | GI50 [33] 11 µM | GI50 [34] 9.48 µM | GI50 [35] 20.5 µM | GI50 [36] 12 µM | GI50 [37] 3.44 µM | GI50 [38] 10.7 µM | GI50 [39] 11.6 µM | GI50 [40] 6.01 µM | GI50 [41] > 23.1 µM | GI50 [42] > 25 µM | GI50 [43] 16.1 µM | GI50 [44] > 25 µM | GI50 [45] > 25 µM | GI50 [46] 16.5 µM | GI50 [47] 6.04 µM | GI50 [48] 12.8 µM | GI50 [49] 6.29 µM | GI50 [50] 12 µM | GI50 [51] 13.3 µM | GI50 [52] 12.9 µM | GI50 [53] 2.42 µM | GI50 [54] 10.3 µM | GI50 [55] > 25 µM | GI50 [56] 13.4 µM | GI50 [57] 9.44 µM
> 25 µM: TGI [1] | TGI [2] | TGI [3] | TGI [4] | TGI [5] | TGI [6] | TGI [8] | TGI [9] | TGI [10] | TGI [11] | TGI [12] | TGI [13] | TGI [14] | TGI [15] | TGI [16] | TGI [17] | TGI [18] | TGI [19] | TGI [20] | TGI [21] | TGI [22] | TGI [23] | TGI [24] | TGI [25] | TGI [26] | TGI [27] | TGI [28] | TGI [29] | TGI [30] | TGI [31] | TGI [32] | TGI [33] | TGI [34] | TGI [35] | TGI [36] | TGI [37] | TGI [38] | TGI [39] | TGI [41] | TGI [42] | TGI [43] | TGI [44] | TGI [45] | TGI [46] | TGI [48] | TGI [49] | TGI [50] | TGI [51] | TGI [52] | TGI [53] | TGI [54] | TGI [55] | TGI [56] | TGI [57]
> 19.2 µM: TGI [47]
